The values below come from patent publication US10407467B2, “Polymyxin derivatives and their use in combination therapy together with different antibiotics” (priority 2013, dated 2019).

Counter-ions that a name gives are not always drawn. Numbered stars: 1 amine (or outer) side, 2 acyl side, 3 side chain; on linkers, the order of the positions; unused ones are H or OH. Bridge positions count the residues as written; N and C are the ends. Square brackets hold non-standard residues; d marks the D form. Peptide text beside a SMILES is read from it. * marks the point of attachment. ξ: configuration not given here. Thr(3ξ) = CC(O)[C@H](N)C(=O)O; NH(2-ClPh) = Clc1ccccc1N*; Dab = NCC[C@H](N)C(=O)O; X3 = O=C([C@H]1CCCNC1)*; CO = O=C([*:1])[*:2]

The test system of data set [1] is HK-2 cell line. As to the kind of experiment: In vitro renal cell toxicity assay (resazurin reduction). The data set is classed as cell-based, human. On the technique in general: Alamar Blue is a resazurin reagent that responds to reducing activity.
Data set [2] has as its system Acinetobacter baumannii. As to the kind of experiment: MIC, compound in combination with a second agent (broth microdilution). The note with it: 1:1 (wt:wt) combination with Rifampicin, MIC = total drug concentration. The data set is classed as cell-based. The essentials: (§1)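 Compound and second agent (e.g. rifampicin) were combined 1:1 w/w, compound weighed as its TFA or sulphate salt. Inoculum was a direct colony suspension from 18-24 hour Mueller-Hinton agar at 0.5 McFarland. MIC is the total drug concentration; lower of duplicates reported, modal value when tested repeatedly.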
In general terms: Dilution methods test growth across graded concentrations, often in twofold steps.

The test system of data set [3] is Escherichia coli. The data set is described as above. The note with it: 1:1 (wt:wt) combination with Rifampicin, MIC = total drug concentration. The data set is classed as cell-based. The method, boiled down:
as §1

In data set [4] the test system is Klebsiella pneumoniae. Described as above. Conditions: 1:1 (wt:wt) combination with Rifampicin, MIC = total drug concentration. The data set is classed as cell-based. The method, boiled down: as §1
Data set [5] concerns Pseudomonas aeruginosa. Described as above. The data set is classed as cell-based. The note with it: 1:1 (wt:wt) combination with Rifampicin, MIC = total drug concentration. The essentials:
as §1

Regarding `CC(C)C[C@@H]1NC(=O)[C@@H](Cc2ccccc2)NC(=O)[C@H](CCN)NC(=O)[C@@H](NC(=O)[C@H](CCN)NC(=O)[C@@H](NC(=O)[C@H](CCN)NC(=O)[C@H]2CCCNC2)C(C)O)CCNC(=O)[C@H](C(C)O)NC(=O)[C@H](CCN)NC(=O)[C@H](CCN)NC1=O` (stereo partly drawn) [Example A22, (S)-Piperidine-3-carbonyl polymyxin B decapeptide] (X3-[Dab][Thr(3ξ)][Dab][Dab][Dab][dF]L[Dab][Dab][Thr(3ξ)]; lactam 4-C), in data set [1], the “HK-2 IC50 rel to PMB” value worked out at 7.4.

With `CC(C)C[C@@H]1NC(=O)[C@@H](Cc2ccccc2)NC(=O)[C@H](CCN)NC(=O)[C@@H](NC(=O)[C@H](CCN)NC(=O)[C@@H](NC(=O)[C@H](CCN)NC(=O)Nc2ccccc2Cl)C(C)O)CCNC(=O)[C@H](C(C)O)NC(=O)[C@H](CCN)NC(=O)[C@H](CCN)NC1=O` (stereo partly shown) [Example C2, CB-182, 804 sulphate salt, reference compound] ({NH(2-ClPh)-CO}-[Dab][Thr(3ξ)][Dab][Dab][Dab][dF]L[Dab][Dab][Thr(3ξ)]; lactam 4-C), the “MIC A. baumannii ATCC BAA-747” value in data set [2] (strain ATCC BAA-747) stood at 0.25 micrograms/mL. Besides, in data set [2] (strain CCUG57249), the “MIC A. baumannii CCUG57249” value is 0.5 micrograms/mL. Also, the “MIC A. baumannii NCTC 13423” value in data set [2] (strain NCTC 13423) was 0.25 micrograms/mL. Besides, in data set [3] (strain ATCC25922), the “MIC E. coli ATCC25922” value came out at 0.125 micrograms/mL. For the same molecule, the “MIC E. coli NCTC9001” value in data set [3] (strain NCTC9001) was 0.25 micrograms/mL. The “MIC K. pneumoniae ATCC 4352” value in data set [4] (strain ATCC 4352) was determined as 0.25 micrograms/mL. In data set [4] (strain ATCC-BAA-2146), the “MIC K. pneumoniae ATCC-BAA-2146” value is listed as 0.5 micrograms/mL. Besides, in data set [4] (strain CCUG-59348), the “MIC K. pneumoniae CCUG-59348” value stood at 2 micrograms/mL. For the same molecule, the “MIC P. aeruginosa ATCC 27853” value in data set [5] (strain ATCC 27853) came out at 0.5 micrograms/mL. In addition, the “MIC P. aeruginosa ATCC CRM-9027” value in data set [5] (strain ATCC CRM-9027) is recorded as 0.5 micrograms/mL. In data set [5] (strain ATCC-47), the “MIC P. aeruginosa ATCC-47” value was 0.25 micrograms/mL. For the same molecule, in data set [5] (strain CCUG 59626), the “MIC P. aeruginosa CCUG 59626” value amounted to 0.125 micrograms/mL. The “IC50 HK-2 cells” value in data set [1] (HK-2 cells, 24 h, resazurin reduction, mean values of up to 6 independent studies) turned out to be 22 mg/L.

On to “Octanoyl polymyxin B nonapeptide, sulfate salt [Example C6, reference compound]”, for which, in data set [1], the “HK-2 relative to PMB” value is 3.3 and the “HK-2 toxicity (IC50) compared with PMB” value is listed as “reduced toxicity against HK-2 compared with PMB”.
